Tested on: Human colorectal cancer Colo-205 cells
Experiment: Pharmacodynamic study on mouse Colo-205 model (subcutaneous xenograft)
Type: in vivo, BALB/c nude mice
Description: BALB/c nude mice, 6-8 weeks old, weighing 12-14 g, female, provided by Shanghai Lab Animal Research Center (Shanghai Xipuer-Beikai) with an animal certificate No: 2008001682093.
The experiment was started after 3-7 days in the experimental environment when the animals arrived. Animals were housed in IVC (independent air supply system) cages (Four animals per cage) in SPF grade experimental animal facilities. Each cage animal information card contained the number of animals in the cage, sex, strain, receiving date, dosing schedule, experiment number, group and start date of the experiment. All cages, bedding, and drinking water were sterilized before use and were updated twice a week.
4.3 Tumor Cell Inoculation Method
Human colorectal cancer Colo-205 cells (ATCC-CCL-222) were cultured in vitro in monolayer under the conditions of RPMI 1640 medium with 10% fetal bovine serum, 100 U/mL penicillin and 100 μg/mL streptomycin, and 37° C. 5% CO2 incubator. The passage was routinely digested with trypsin-EDTA twice a week. When the cell saturation was up to 80%-90% and reached the requirement, the cells were collected, counted and inoculated. 0.2 mL (5×10^6) Colo-205 cells were subcutaneously inoculated on the right back of each mouse, and mice were randomly grouped and dosed when the average tumor volume reached 163 mm^3.
4.14 mL of lactic acid was added to a large beaker containing 800 mL of deionized water, and the pH was adjusted to 4.0 with 5 N NaOH. Then the volume was fixed to 1,000 mL to obtain 50 mmol/L sodium lactate buffer.
The subcutaneous tumor volume of nude mice was measured 2-3 times a week, and the mice were weighed, and the data were recorded.
4.6 Analysis and Evaluation
Experimental evaluation index: the tumor growth inhibition rate TGI (%) or the relative tumor proliferation rate T/C (%) was used for evaluation, wherein T was the experimental group, and C was the vehicle group.

[1] = Colo-205 model, mesylate, 50 mg/kg PO × 28 days, day 28

CCN1CCC(C(C)c2ccc(Nc3ncc(F)c(-c4cc(F)c5nc(C)n(C(C)C)c5c4)n3)nc2)CC1 (single isomer, unassigned) [Example 17, (R or S)—N-(5-(1-(1-ethylpiperidin-4-yl)ethyl)pyridin-2-yl)-5-fluoro-4-(4-fluoro-1-isopropyl-2-methyl-1H-benzo[d]imidazol-6-yl) pyrimidin-2-amine]
Tumor volume (day 0) (Colo-205 model, baseline at start of dosing, mesylate, 50 mg/kg PO × 28 days): 198 mm^3 | antitumor effect compared with Abemaciclib (in words) (Colo-205 model, same dosage (50 mg/kg PO × 28 days)): better antitumor effect than positive control compound Abemaciclib | Tumor volume (day 28) (Colo-205 model, mesylate, 50 mg/kg PO × 28 days): 591 mm^3 | T/C relative tumor proliferation rate [1]: 18.2% | TGI tumor growth inhibition rate [1]: 81.8% | inhibitory effect on the tumor growth (in words) (Colo-205 nude mouse model, 50 mg/kg, continuous PO administration for 28 days): strong inhibitory effect
